The target of this assay is Poly [ADP-ribose] polymerase 1 (Homo sapiens, UniProt P09874). The experiment in a line: PARP Enzyme Assay: The PARP enzyme assay is set up on ice in a volume of 100 microliters consisting of 100 mM Tris-HCl (pH 8.0), 1 mM MgCl2, 28 mM KCl, 28 mM NaCl, 0.1 mg/ml of DNase I activated herring sperm DNA (Sigma, Mo.), 3.0 micromolar [3H]nicotinamide adenine dinucleotide (470 mci/mmole), 7 micrograms/ml PARP enzyme, and various concentrations of the compounds to be tested. The reaction is initiated by incubating the mixture at 25° C. After 15 minutes of incubation, the reaction is terminated by adding 500 microliters of ice cold 20% (w/v) trichloroacetic acid. The precipitate formed is transferred onto a glass fiber filter (Packard Unifilter-GF/B) and washed three times with ethanol. After the filter is dried, the radioactivity is determined by scintillation counting.
Chain of Poly [ADP-ribose] polymerase 1 (P09874 whole entry): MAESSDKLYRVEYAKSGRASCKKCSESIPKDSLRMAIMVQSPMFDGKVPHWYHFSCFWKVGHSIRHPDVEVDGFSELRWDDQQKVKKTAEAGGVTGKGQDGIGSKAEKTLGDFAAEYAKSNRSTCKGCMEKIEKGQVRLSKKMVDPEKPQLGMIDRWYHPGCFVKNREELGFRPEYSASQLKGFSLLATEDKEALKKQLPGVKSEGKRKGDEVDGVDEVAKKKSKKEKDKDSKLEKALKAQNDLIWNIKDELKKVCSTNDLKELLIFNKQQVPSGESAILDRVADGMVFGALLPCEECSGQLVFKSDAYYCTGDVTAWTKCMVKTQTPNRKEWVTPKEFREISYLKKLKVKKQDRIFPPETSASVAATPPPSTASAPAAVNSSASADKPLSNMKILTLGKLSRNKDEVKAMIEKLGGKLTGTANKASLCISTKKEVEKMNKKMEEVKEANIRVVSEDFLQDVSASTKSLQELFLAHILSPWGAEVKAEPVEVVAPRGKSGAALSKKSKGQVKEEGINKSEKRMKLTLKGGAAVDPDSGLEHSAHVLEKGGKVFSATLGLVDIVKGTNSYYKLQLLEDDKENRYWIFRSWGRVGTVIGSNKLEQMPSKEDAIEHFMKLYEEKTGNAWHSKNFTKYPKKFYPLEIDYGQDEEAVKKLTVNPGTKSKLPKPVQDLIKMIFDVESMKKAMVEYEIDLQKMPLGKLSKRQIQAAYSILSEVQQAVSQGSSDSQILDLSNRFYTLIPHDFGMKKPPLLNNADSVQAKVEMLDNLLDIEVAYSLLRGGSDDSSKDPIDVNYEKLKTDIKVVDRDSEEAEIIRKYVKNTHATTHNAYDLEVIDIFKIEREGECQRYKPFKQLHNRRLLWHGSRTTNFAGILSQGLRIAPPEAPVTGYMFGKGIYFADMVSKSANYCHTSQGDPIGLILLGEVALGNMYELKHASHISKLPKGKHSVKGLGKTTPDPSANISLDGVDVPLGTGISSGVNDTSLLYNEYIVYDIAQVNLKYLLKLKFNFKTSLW

Take `CCN(CC)CCN(CC)Cc1ccc2c(c1)-c1n[nH]c(=O)c3cccc(c13)O2`: the half-inhibitory concentration (IC50) came to 500 nM.

One may read the IC50 as the concentration that gives 50% inhibition.
